According to US6864086B2, “Nitric oxide-scavenging system for culturing oocytes, embryos, or other cells” (Board of Supervisors of Louisiana State University and …, priority 1998, dated 2005):
Values joined by “and” are separate entries in the source; they are usually repeats but may differ in a detail not shown here. Identical values can stand only once.

Tested on: bovine embryos co-cultured with granulosa cells
Test: Example 4: Hb (1 or 10 μg/ml) added to mBECM-C, embryos co-cultured with granulosa cells
Assay type: cell-based
Experimental: mBECM containing 10 μM β-mercaptoethanol was used to culture embryos, as described in J. Lim et al., “Roles of growth factors in the development of bovine embryos fertilized in vitro and cultured singly in a defined medium,” Reprod. Fertil. Dev., 8, 1199-1205 (1996). To culture individual 8-cell embryos we used mBECM supplemented with 1 ng/ml platelet derived growth factor type AB (PDGF; Upstate Biotechnology Inc., Lake Placid, N.Y.), 1 ng/ml transforming growth factor-β (TGF; R & D System, Minneapolis, Minn.), 50 ng/ml arachidonic acid (AA; Cayman Chemical Co., Ann Arbor, Mich.), 100 μM glutathione (GSH; Sigma Co.) and 1 mg/ml polyvinyl alcohol (PVA) (mBECM-S). mBECM to which 10% (v/v) FBS was added (mBECM-C) was used for co-culturing inseminated zygotes with CGs and for producing 8-cell embryos. Osmolarity of the medium was maintained within the range of 265-290 mOsm.
The bovine cumulus-oocyte complexes (COCs) used were collected in Madison, Wis. (BOMED, Inc.), and were shipped in 2-ml of maturation medium in a battery powered incubator via overnight express mail service. Oocytes matured during transit and arrived within 24 h after exposure to maturation medium, pre-equilibrated at 39° C. in 5% CO2 in air. At 22-24 h after exposure to the medium, the COCs were inseminated in vitro as described in J. Lim et al., “Intracytoplasmic glutathione concentration and the role of β-mercaptoethanol in preimplantation development of bovine embryos,” Theriogenology, 46, 429-439 (1996). At 18 h post-insemination, COCs were cultured in groups (30-35 embryos) in a 4-well multidish (Nunc, Roskilde, Denmark) containing 0.8-ml of mBECM-C. Embryos were dislodged from CGs at 36-48 h post-insemination.
In Example 1, embryos (83-85 per group) collected 18 h post-insemination were cultured in mBECM-C, to which 0, 0.008, or 0.04 mM SNP was added at 18 or 60 h post-insemination. In Example 2, 8-cell embryos (80 per group) were produced in a co-culture system containing CGs and mBECM-C, and then beginning at 60 h post-insemination were cultured singly in a defined culture medium (mBECM-S), to which 0, 0.0016, 0.008, or 0.04 mM of SNP (S-0501, Sigma Co.) was added. In Example 3 embryos, either uncleaved (n=99) or developed to the 2-cell stage (90), were collected 48 h post-insemination; and cleaved embryos, either developed to the morula stage (69) or degenerate (63) were collected 144 h post-insemination. NO metabolites were then measured in the embryos. In Example 4, three groups of 95 zygotes each were co-cultured with CGs in mBECM-C, to which 0, 1, or 10 μg/ml Hb (bovine, mainly methemoglobin, H-2500, Sigma Co.) was added. […] Inseminated oocytes (104 per group) were co-cultured with CGs in MBECM-C up to 192 h post-insemination; and Hb (1 μg/ml) was added to the medium at 18, 60, or 144 h post-insemination. In Example 6, inseminated oocytes (93 per group) were cultured in the presence or absence of CGs in mBECM-C to which either 0 or 1 μg/ml Hb was added. In Example 7, 8-cell embryos (100 per group), obtained after culture in mBECM-C supplemented with Hb (1 μg/ml), were cultured singly in mBECM-S, with or without Hb.
Oocytes or 8-cell embryos were randomly and equally allocated to each treatment group. In Examples 1, 2, and 4-7, oocytes or embryos that had developed to the 2-cell, 8-cell, >8-cell, 16-cell morula, and blastocyst stages were individually scored ‘1’ (developed) at 48, 60, 96, 120, 144 and 192 h post-insemination, respectively. […] Sums of the scores in each stage of development were evaluated by analysis of variance (ANOVA) using the general linear model (PROC-GLM) in the SAS program software. In Example 3, concentrations of NO metabolites in embryos were subjected to ANOVA. […] Differences were regarded as statistically significant where P values were less than 0.05.

With hemoglobin [Hb] the “Percent of Embryos Developed to 2-cell” value (Hb 1 μg/ml in mBECM-C) was 81%, the “Percent of Embryos Developed to 16-cell” value (Hb 1 μg/ml in mBECM-C) was 52% and the “Percent of Embryos Developed to >8-cell” value (Hb 1 μg/ml in mBECM-C) was 60%. For the same substance, the “Percent of Embryos Developed to Blastocyst” value (Hb 1 μg/ml in mBECM-C) was 34% and 34^b %, the “Percent of Embryos Developed to Morula” value (Hb 1 μg/ml in mBECM-C) was 46% and the “Percent of Embryos Developed to 2-cell” value (Hb 10 μg/ml in mBECM-C) was 78%. The “Percent of Embryos Developed to 16-cell” value (Hb 10 μg/ml in mBECM-C) was 43%, the “Percent of Embryos Developed to >8-cell” value (Hb 10 μg/ml in mBECM-C) was 53% and the “Percent of Embryos Developed to Blastocyst” value (Hb 10 μg/ml in mBECM-C) was 27% and 27^ab %. The “Percent of Embryos Developed to Morula” value (Hb 10 μg/ml in mBECM-C) was 41%.
